Tests used:
c-Cbl = c-Cbl (Homo sapiens (Human), UniProt P22681); assay: C-Cbl LCK Ub TR-FRET assay (C-cbl Lck HTRF); format: biochemical
Summary of the method: (§1)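 Signal is read once the detection mix has stood 20 min at ambient temperature. Curves are anchored by DMSO as maximum and by omission of LCK as minimum.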

Cbl-b = Cbl-b (Homo sapiens (Human), UniProt Q13191); assay: Cbl-b LCK Ub TR-FRET assay (Cbl-b Lck HTRF); format: biochemical; settings: for IC50: Cbl-b LCK Ub TR-FRET; for fold-selectivity (Cbl-b over C-cbl): ratio C-cbl Lck HTRF IC50 / Cbl-b Lck HTRF IC50
Cbl-b, sequence (Q13191 40-426): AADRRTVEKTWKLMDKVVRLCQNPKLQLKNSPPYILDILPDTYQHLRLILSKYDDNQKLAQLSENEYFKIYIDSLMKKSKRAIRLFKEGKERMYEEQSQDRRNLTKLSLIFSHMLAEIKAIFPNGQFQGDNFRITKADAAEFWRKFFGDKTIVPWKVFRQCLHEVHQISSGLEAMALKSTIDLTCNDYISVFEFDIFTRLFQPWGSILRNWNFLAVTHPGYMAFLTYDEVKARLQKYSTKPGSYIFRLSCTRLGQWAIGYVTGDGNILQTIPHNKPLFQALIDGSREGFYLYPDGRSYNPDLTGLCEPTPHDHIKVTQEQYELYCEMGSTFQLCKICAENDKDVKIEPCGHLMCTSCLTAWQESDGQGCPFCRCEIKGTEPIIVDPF
Summary of the method: as §1

[1] = molecular target: Human Cbl-b (residues 40-426) (Homo sapiens (Human), UniProt Q13191); assay: Cbl-b SPR assay; format: binding; settings: for Fold of selectivity: C-cbl SPR Kd vs Cbl-b SPR Kd; for Kd: SPR, 20° C.
Human Cbl-b (residues 40-426), sequence (Q13191 40-426): as above
Summary of the method: (§2)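 First, protein is captured to 1300-1500 RU. Then compound runs in single cycle kinetics, a blank plus 5 two-fold concentrations up to 500 nM (120 s contact, 50 μl/min, 450 s dissociation). Chaser injections (20 s, 30 μl/min) track occupancy, giving kd, which is fixed when fitting the titration.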

c-Cbl (residues 47-435) = c-Cbl (residues 47-435) (Homo sapiens (Human), UniProt P22681); assay: c-Cbl SPR assay; format: binding; settings: 20° C.
c-Cbl (residues 47-435), sequence (P22681 47-435): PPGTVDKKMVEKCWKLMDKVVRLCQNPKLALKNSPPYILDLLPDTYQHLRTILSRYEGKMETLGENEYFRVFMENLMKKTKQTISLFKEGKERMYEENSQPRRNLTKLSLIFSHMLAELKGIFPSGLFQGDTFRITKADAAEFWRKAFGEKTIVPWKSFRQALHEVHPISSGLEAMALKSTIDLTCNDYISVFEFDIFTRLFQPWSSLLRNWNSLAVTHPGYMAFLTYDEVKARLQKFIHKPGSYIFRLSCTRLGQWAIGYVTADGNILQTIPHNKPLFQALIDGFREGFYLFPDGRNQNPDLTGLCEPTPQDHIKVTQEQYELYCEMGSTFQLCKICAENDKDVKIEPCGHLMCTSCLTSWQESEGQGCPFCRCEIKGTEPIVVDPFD
Summary of the method: as §2

c-Cbl, sequence (P22681 47-435): as above

| IC50 (c-Cbl) [nM] | IC50 (Cbl-b) [nM] | fold-selectivity (Cbl-b over C-cbl) (Cbl-b) [x] | Fold of selectivity [1] [×] | Kd [1] [nM] | Kd (c-Cbl (residues 47-435)) [nM] | Compound |
| --- | --- | --- | --- | --- | --- | --- |
| 290 | 88 | 3.4 | 4.7 | 67 | 310 | CO[C@H]1C[C@@](c2cccc(N3Cc4c(cc(CN5CCN(C)C[C@@H]5C(C)C)cc4C(F)(F)F)C3=O)c2)(c2nncn2C)C1 (single isomer, unassigned) [Compound 172] |
| 45 | 20 | 2.2 | 6.3 | 7.9 | 49 | C[C@H](NC1(C)CCC1)c1cc2c(c(C(F)(F)F)c1)CN(c1cccc(C3(c4nncn4C)CC(F)(F)C3)c1)C2=O (single isomer, unassigned) [Compound 173] |
| 6.8 | 8.5 | 0.80 | 2.8 | 0.4 | 1.1 | C[C@@H](NC1(C)CCC1)c1cc2c(c(C(F)(F)F)c1)CN(c1cccc(C3(c4nncn4C)CC(F)(F)C3)c1)C2=O (single isomer, unassigned) [Compound 174] |
| 9.7 | 9.6 | 1.0 | 6.4 | 0.95 | 6 | CO[C@H]1C[C@@](c2cccc(N3Cc4c(cc([C@@H](C)NC5(C)CCC5)cc4C(F)(F)F)C3=O)c2)(c2nncn2C)C1 (single isomer, unassigned) [Compound 175] |
| 220 | 62 | 3.4 | 6.8 | 41 | 280 | CO[C@H]1C[C@@](c2cccc(N3Cc4c(cc([C@H](C)NC5(C)CCC5)cc4C(F)(F)F)C3=O)c2)(c2nncn2C)C1 (single isomer, unassigned) [Compound 176] |
| 8.3 | 7.6 | 1.1 | 6.3 | 0.42 | 2.5 | CO[C@H]1C[C@](c2cccc(N3Cc4c(cc([C@@H](C)NC5(C)CCC5)cc4C(F)(F)F)C3=O)c2)(c2nncn2C)C1 (single isomer, unassigned) [Compound 184] |
| 150 | 23 | 6.7 | 29 | 3.2 | 97 | CO[C@H]1C[C@](c2cccc(N3Cc4c(cc([C@H](C)NC5(C)CCC5)cc4C(F)(F)F)C3=O)c2)(c2nncn2C)C1 (single isomer, unassigned) [Compound 185] |
| 29 | 13 | 2.3 | 4.1 | 3.7 | 15 | CC(C)[C@H]1CN(C)CCN1Cc1cc(Cl)c2c(c1)C(=O)N(c1cccc(C3(c4nncn4C)CC4(COC4)C3)c1)C2 (single isomer, unassigned) [Compound 204] |
| 36 | 13 | 2.7 | 6.5 | 4.5 | 29 | C=C[C@@H](C)Nc1cc(N2Cc3c(cc(CNC4(C)CCC4)cc3C(F)(F)F)C2=O)cc([C@]2(c3nncn3C)C[C@H](OC)C2)c1 (single isomer, unassigned) [Compound 219] |
| 39 | 13 | 3.0 | 13 | 2.7 | 34 | C=C[C@H](C)Nc1cc(N2Cc3c(cc(CNC4(C)CCC4)cc3C(F)(F)F)C2=O)cc([C@]2(c3nncn3C)C[C@H](OC)C2)c1 (single isomer, unassigned) [Compound 220] |
| 16 | 11 | 1.5 | 5.8 | 1.3 | 7.6 | CO[C@H]1C[C@](c2cc(N[C@H](C)CC#N)cc(N3Cc4c(cc(CNC5(C)CCC5)cc4C(F)(F)F)C3=O)c2)(c2nncn2C)C1 (single isomer, unassigned) [Compound 221] |
| 72 | 18 | 4.0 | 5.6 | 6.9 | 39 | CO[C@H]1C[C@](c2cc(N[C@@H](C)CC#N)cc(N3Cc4c(cc(CNC5(C)CCC5)cc4C(F)(F)F)C3=O)c2)(c2nncn2C)C1 (single isomer, unassigned) [Compound 225] |
| 21 | 16 | 1.3 | 8.7 | 1.9 | 16 | CO[C@H]1C[C@@](c2cc(N[C@H](C)CC#N)cc(N3Cc4c(cc(CNC5(C)CCC5)cc4C(F)(F)F)C3=O)c2)(c2nncn2C)C1 (single isomer, unassigned) [Compound 228] |
| 200 | 40 | 5.0 | 7.1 | 21 | 150 | CO[C@H]1C[C@@](c2cc(N[C@@H](C)CC#N)cc(N3Cc4c(cc(CNC5(C)CCC5)cc4C(F)(F)F)C3=O)c2)(c2nncn2C)C1 (single isomer, unassigned) [Compound 233] |
| 16 | 16 | 1.0 | 5.5 | 0.22 | 1.1 | Cn1cnnc1[C@H](c1cccc(N2Cc3c(cc(CNC4(C)CCC4)cc3C(F)(F)F)C2=O)c1)C1CCC1 (single isomer, unassigned) [Compound 259] |
| 270 | 38 | 7.1 | 12 | 13 | 150 | Cn1cnnc1[C@H](c1cccc(N2Cc3c(cc(CNC4(C)CCC4)cc3C(F)(F)F)C2=O)c1)C1CC(OCC(F)F)C1 (single isomer, unassigned) [Compound 262] |
| 18 | 10 | 1.8 | 5.4 | 1.9 | 10 | Cn1cnnc1[C@H](c1cccc(N2Cc3c(cc(CNC4(C)CCC4)cc3C(F)(F)F)C2=O)c1)C1CC(OCC(F)F)C1 (single isomer, unassigned) [Compound 263] |
| 3400 | 310 | 11 | 7.5 | 180 | 1300 | CCOC1CC([C@H](c2cccc(N3Cc4c(cc(CNC5(C)CCC5)cc4C(F)(F)F)C3=O)c2)c2nncn2C)C1 (single isomer, unassigned) [Compound 265] |
| 170 | 37 | 4.5 | 7.6 | 25 | 190 | CCOC1CC([C@@H](c2cccc(N3Cc4c(cc(CNC5(C)CCC5)cc4C(F)(F)F)C3=O)c2)c2nncn2C)C1 (single isomer, unassigned) [Compound 267] |
| 4.9 | 5.3 | 0.92 | 3.5 | 0.1 | 0.35 | C[C@@H](NC1(C)CCC1)c1cc(Cl)c2c(c1)C(=O)N(c1cccc([C@]3(c4nncn4C)C[C@@H](F)C3)c1)C2 (single isomer, unassigned) [Compound 288] |
| 43 | 18 | 2.4 | 8.5 | 4.6 | 37 | C[C@H](NC1(C)CCC1)c1cc(Cl)c2c(c1)C(=O)N(c1cccc([C@]3(c4nncn4C)C[C@@H](F)C3)c1)C2 (single isomer, unassigned) [Compound 289] |
| 590 | 300 | 2.0 | 2.8 | 560 | 1400 | Cn1cnnc1C1(c2cccc(N3Cc4c(cc([C@@H](O)CO)cc4C(F)(F)F)C3=O)c2)CCC1 (single isomer, unassigned) [Compound 301] |
| 880 | 410 | 2.1 | 4.0 | 410 | 1600 | Cn1cnnc1C1(c2cccc(N3Cc4c(cc([C@H](O)CO)cc4C(F)(F)F)C3=O)c2)CCC1 (single isomer, unassigned) [Compound 302] |
| 26 | 11 | 2.3 | 8.2 | 3.3 | 28 | Cn1cnnc1[C@@H](c1cccc(N2Cc3c(cc(CNC4(C)CCC4)cc3C(F)F)C2=O)c1)C1COC1 (single isomer, unassigned) [Compound 303] |
| 41 | 27 | 1.5 | 1.5 | 37 | 56 | Cn1cnnc1[C@@](O)(c1cccc(N2Cc3c(cc(CNC4(C)CCC4)cc3C(F)(F)F)C2=O)c1)C(F)(F)F (single isomer, unassigned) [Compound 308] |

| Compound | IC50 (c-Cbl) [nM] | IC50 (Cbl-b) [nM] | fold-selectivity (Cbl-b over C-cbl) (Cbl-b) [x] | Fold of selectivity [1] [×] | Kd [1] [nM] | Kd (c-Cbl (residues 47-435)) [nM] |
| --- | --- | --- | --- | --- | --- | --- |
| Cn1cnnc1[C@H](c1cccc(N2Cc3c(cc(CNC4(C)CCC4)cc3C(F)(F)F)C2=O)c1)C1CCOCC1.O=CO (single isomer, unassigned) [Compound 291, (S)-2-(3-((4-methyl-4H-1,2,4-triazol-3-yl)(tetrahydro-2H-pyran-4-yl)methyl)phenyl)-6-(((1-methylcyclobutyl)amino)methyl)-4-(trifluoromethyl)isoindolin-1-one formate] | 47 | 11 |  |  | 62 | 130 |
